Among the data in patent US10344019B2 (priority 2010, dated 2019) are EC50 values, retold here.

Read-outs that look alike come from different tables or passages of the source.

Holding throughout (experiment): microbe, parasite or virus in culture
Holding throughout (assay type): cell-based

Test [1] relates to HCV 1a RLuc cells (dicistronic genotype 1a H77 replicon, RLuc reporter). As to conditions: Hepatitis C virus, read-out: 1a. Here is the method:
(§1) Evaluation of cell-based anti-HCV activity: Antiviral potency (EC50) was determined using a Renilla luciferase (RLuc)-based HCV replicon reporter assay. To perform the assay for genotype 1 and 2a JFH-1, HCV 1b RLuc cells (harboring a dicistronic genotype 1b Con1 replicon that encodes a RLuc reporter), or HCV 1a RLuc cells (harboring a dicistronic genotype 1a H77 replicon that encodes a RLuc reporter), or HCV 2a JFH-1 Rluc cells (harboring a dicistronic genotype 2a JFH-1 replicon that encodes a RLuc reporter) were dispensed into 384-well plates. To perform the assay for genotype 2a (with M31 present) or 2b, HCV 2a Rluc or 2b Rluc cells (both with M31 present) harboring a dicistronic NS5A chimeric genotype 2a JFH-1 replicon that encodes a RLuc reporter and either genotype 2a J6 strain NS5A gene or genotype 2b MD2b-1 NS5A gene (based on Los Alamos HCV database isolates, both with M31 present) respectively, were dispensed into 384-well plates. To perform the assay for genotype 3 and 4, HCV 3a RLuc or 4a Rluc cells harboring a dicistronic NS5A chimeric genotype 1b Con1 replicon that encodes a RLuc reporter and either a consensus genotype 3a NS5A gene or genotype 4a NS5A gene (based on Los Alamos HCV database isolates) respectively, were dispensed into 384-well plates. Compounds were re-suspended in DMSO at a concentration of 10 mM and serially diluted in DMSO either manually or using an automated pipeting instrument. Serially diluted compounds were mixed with cell culture media and added to the seeded cells. […] 72 hours later, cells were lysed and Renilla luciferase activity quantified as recommended by the manufacturer (Promega-Madison, Wis.). Non-linear regression was performed to calculate EC50 values.

Test [2] deals with HCV 1b RLuc cells (dicistronic genotype 1b Con1 replicon, RLuc reporter). As to conditions: Hepatitis C virus, read-out: 1b (nM). How it is done:
as §1

Test [3] has as its system HCV 2a JFH-1 Rluc cells (dicistronic genotype 2a JFH-1 replicon, RLuc reporter). The conditions noted are these: Hepatitis C virus, genotype 2a JFH-1 replicon, read-out: 2a JFH. How it is done:
as §1
A general note: In antiviral work, replicon cells carry a viral genome segment that copies itself.

In test [4] the test system is HCV 3a RLuc cells (NS5A chimeric genotype 1b Con1 replicon with consensus genotype 3a NS5A gene). The conditions noted are these: Hepatitis C virus. How it is done:
as §1

Test [5] relates to HCV 4a Rluc cells (NS5A chimeric genotype 1b Con1 replicon with genotype 4a NS5A gene). As to conditions: Hepatitis C virus, read-out: 4a. Here is the method: as §1
The mark [6] stands for this setting: read-out: 3a, genotype 3a replicon.
[7] abbreviates: genotype 1a H77 replicon, RLuc reporter.
[8] abbreviates: read-out: 3a, genotype 3a NS5A chimeric 1b Con1 replicon.

As for `COC(=O)N[C@H](C(=O)N1CCC[C@H]1c1ncc(-c2ccc3cc(-c4ccc5c(ccc6nc([C@@H]7[C@H]8CC[C@H](C8)N7C(=O)[C@H](NC(=O)OC)c7ccccc7)[nH]c65)c4)ccc3c2)[nH]1)C(C)C` [Example 326], the EC50 is 0.001 to 0.999 nM in test [1] (genotype 1a replicon); 0.005 nM in test [2]; 0.001 to 0.999 nM in test [3]; 1 to 4.99 nM in test [4] (setting [6]); 0.001 to 0.99 nM in test [5].

As to `COC(=O)N[C@H](C(=O)N1CCC[C@H]1c1nc2ccc3cc(-c4ccc5c(c4)CCc4nc([C@@H]6[C@H]7CC[C@H](C7)N6C(=O)[C@@H](NC(=O)OC)[C@@H](C)OC)[nH]c4-5)ccc3c2[nH]1)C(C)C` [Example 88], the EC50 is 0.001 to 0.999 nM in test [1] (72 h, Table 2, genotype 1a H77 replicon, 72 hours); 0.019 nM in test [2] (72 h); 0.001 to 0.999 nM in test [3] (72 h, Table 2, 72 hours); 0.001 to 0.99 nM in test [4] (read-out: 3a, Table 2, genotype 3a NS5A chimeric replicon); 0.001 to 0.99 nM in test [5].

On to `COC(=O)N[C@H](C(=O)N1CCC[C@H]1c1ncc(-c2ccc3c(c2)COc2c-3ccc3cc(-c4cnc([C@@H]5CCCN5C(=O)[C@@H](NC(=O)OC)[C@@H](C)OC)[nH]4)ccc23)[nH]1)[C@@H](C)OC` [Example 17], for which the EC50 in test [1] (72 h, Table 1, genotype 1a H77 replicon, 72 hours) was 0.001 to 0.999 nM; in test [2] (72 h), 0.014 nM; in test [3] (72 h, Table 1, 72 hours) it was 0.001 to 0.999 nM; in test [4] (read-out: 3a, Table 1, genotype 3a NS5A chimeric replicon) it was > 5 nM; in test [5], 0.001 to 0.99 nM.

On to `COC(=O)N[C@H](C(=O)N1CCC[C@H]1c1ncc(-c2cc3c(cc2F)-c2ccc(-c4cnc([C@@H]5CCCN5C(=O)[C@@H](NC(=O)OC)C(C)C)[nH]4)c(F)c2CO3)[nH]1)C(C)C` [Example 341], for which the EC50 in test [1] (genotype 1a replicon) was 0.001 to 0.999 nM; in test [2], 0.006 nM; in test [3] it was 0.001 to 0.999 nM; in test [4] (setting [6]) it was 0.001 to 0.99 nM; in test [5] it was 0.001 to 0.99 nM.

Take `COC(=O)N[C@H](C(=O)N1[C@@H]2CC[C@@H](C2)[C@H]1c1ncc(-c2ccc(-c3ccc4c(ccc5nc([C@@H]6CCCN6C(=O)[C@H](NC(=O)OC)c6ccccc6)[nH]c54)c3)cc2F)[nH]1)C(C)C` [Example 312]: the EC50 in test [1] (genotype 1a replicon) was 1 to 44 nM; in test [2], 0.011 nM; in test [3], 0.001 to 0.999 nM; in test [4] (setting [6]) it was 0.001 to 0.99 nM; in test [5] it was 0.001 to 0.99 nM.

`COC(=O)N[C@H](C(=O)N[C@H](c1nc(-c2ccc3c(c2)C(F)(F)c2cc(-c4ccc5nc([C@@H]6CCCN6C(=O)[C@H](NC(=O)OC)c6ccccc6)[nH]c5c4)ccc2-3)c[nH]1)C(C)C)C1CCOCC1` [Example 227]: the EC50 in test [1] (setting [7]) is 1 to 44 nM; in test [2], 0.025 nM; in test [3] (RLuc reporter), 0.001 to 0.999 nM; in test [4] (setting [8]) it was 0.001 to 0.99 nM; in test [5], 0.001 to 0.99 nM.

With `COC(=O)NC(C(=O)N1CCC[C@H]1c1ncc(-c2ccc3c(c2)C(F)(F)c2cc(-c4ccc(-c5cnc([C@@H]6CCCN6C(=O)[C@H](NC(=O)OC)c6ccccc6)[nH]5)cc4)ccc2-3)[nH]1)C1CCOCC1` (stereo partly shown) [Example 199], the EC50 in test [1] (setting [7]) was 1 to 44 nM; in test [2], 0.01 nM; in test [3] (RLuc reporter), 1 to 44 nM; in test [4] (setting [8]) it was 1 to 4.99 nM; in test [5] it was 0.001 to 0.99 nM.

Take `COC(=O)N[C@H](C(=O)N1CCC[C@H]1c1ncc(-c2ccc3c4ccc(-c5cnc([C@@H]6CCCN6C(=O)[C@@H](NC(=O)OC)[C@@H](C)OC)[nH]5)cc4c4ccccc4c3c2)[nH]1)[C@@H](C)OC` [Example 310]: the EC50 is 0.001 to 0.999 nM in test [1] (genotype 1a replicon); 0.041 nM in test [2]; 0.001 to 0.999 nM in test [3]; 0.001 to 0.99 nM in test [4] (setting [6]); 0.001 to 0.99 nM in test [5].

Regarding `COC(=O)N[C@H](C(=O)N1CCC[C@H]1c1nc2ccc3cc(-c4ccc(-c5cnc([C@@H]6CC7(CN6C(=O)[C@H](NC(=O)OC)c6ccccc6)OCCO7)[nH]5)cc4)ccc3c2[nH]1)C1CCOCC1` [Example 297], the EC50 was 0.001 to 0.999 nM in test [1] (genotype 1a replicon); 0.357 nM in test [2]; 0.001 to 0.999 nM in test [3]; 0.001 to 0.99 nM in test [4] (setting [6]); 0.001 to 0.99 nM in test [5].

On to `COC(=O)N[C@H](C(=O)N1C[C@@H](C#N)C[C@H]1c1ncc(-c2ccc3cc(-c4ccc(-c5cnc([C@@H]6CCCN6C(=O)[C@H](NC(=O)OC)c6ccccc6)[nH]5)cc4)ccc3c2)[nH]1)C(C)C` [Example 116], for which the EC50 is 0.001 to 0.999 nM in test [1] (setting [7]); 0.008 nM in test [2]; 0.001 to 0.999 nM in test [3] (RLuc reporter); 0.001 to 0.99 nM in test [4] (setting [8]); 0.001 to 0.99 nM in test [5].

Take `CC#Cc1cc(-c2cnc([C@@H]3[C@H]4CC[C@H](C4)N3C(=O)[C@@H](NC(=O)OC)C3CCOCC3)[nH]2)ccc1-c1ccc2c(ccc3nc([C@@H]4CCCN4C(=O)[C@@H](NC(=O)OC)C(C)C)[nH]c32)c1` [Example 322]: the EC50 in test [1] (genotype 1a replicon) is 0.001 to 0.999 nM; in test [2] it was 0.021 nM; in test [3], 0.001 to 0.999 nM; in test [4] (setting [6]), 0.001 to 0.99 nM; in test [5], 0.001 to 0.99 nM.

In the case of `COC(=O)N[C@H](C(=O)N1[C@@H]2CC[C@@H](C2)[C@H]1c1nc2ccc3cc(-c4ccc(-c5cnc([C@@H]6C[C@H]7C[C@H]7N6C(=O)[C@H](NC(=O)OC)c6ccccc6)[nH]5)cc4)ccc3c2[nH]1)C(C)C` [Example 368], the EC50 in test [1] (genotype 1a replicon) is 0.001 to 0.999 nM; in test [2] it was 0.012 nM; in test [3], 0.001 to 0.999 nM; in test [4] (setting [6]) it was 0.001 to 0.99 nM; in test [5], 0.001 to 0.99 nM.

For `COC(=O)N[C@H](C(=O)N1CCC[C@H]1c1nc(Cl)c(-c2ccc(-c3ccc(-c4[nH]c([C@@H]5CCCN5C(=O)[C@@H](NC(=O)OC)C5CCOCC5)nc4Cl)cc3)cc2)[nH]1)C1CCOCC1` [Example 353], the EC50 in test [1] (genotype 1a replicon) is 0.001 to 0.999 nM; in test [2] it was 0.493 nM; in test [3], 0.001 to 0.999 nM; in test [4] (setting [6]), 0.001 to 0.99 nM; in test [5] it was 0.001 to 0.99 nM.

Turning to `COC(=O)N[C@H](C(=O)N1[C@@H]2CC[C@@H](C2)[C@H]1c1nc2ccc3cc(-c4ccc(-c5cnc([C@@H]6C[C@H]7C[C@H]7N6C(=O)[C@@H](NC(=O)OC)C6CCOCC6)[nH]5)cc4)ccc3c2[nH]1)C(C)C` [Example 367], the EC50 was 0.001 to 0.999 nM in test [1] (genotype 1a replicon); 0.049 nM in test [2]; 0.001 to 0.999 nM in test [3]; 0.001 to 0.99 nM in test [4] (setting [6]); 0.001 to 0.99 nM in test [5].

With `COC(=O)N[C@H](C(=O)N1CCC[C@H]1c1nc2ccc(-c3ccc4c(c3)sc3cc(-c5cnc([C@@H]6CCCN6C(=O)[C@H](NC(=O)OC)c6ccccc6)[nH]5)ccc34)cc2[nH]1)[C@@H](C)OC` [Example 251], the EC50 was 0.001 to 0.999 nM in test [1] (setting [7]); 0.01 nM in test [2]; 0.001 to 0.999 nM in test [3] (RLuc reporter); 0.001 to 0.99 nM in test [4] (setting [8]); 0.001 to 0.99 nM in test [5].

With `COC(=O)N[C@H](C(=O)N1CCC[C@H]1c1nc2ccc3cc(-c4ccc5cc(-c6cnc([C@@H]7CCCN7C(=O)[C@H](NC(=O)OC)c7ccccc7)[nH]6)ccc5c4)ccc3c2[nH]1)[C@@H](C)OC` [Example 271], the EC50 in test [1] (setting [7]) was 0.001 to 0.999 nM; in test [2], 0.008 nM; in test [3] (RLuc reporter), 0.001 to 0.999 nM; in test [4] (setting [8]), 0.001 to 0.99 nM; in test [5], 0.001 to 0.99 nM.

`CC#Cc1cc(-c2cnc([C@@H]3CCCN3C(=O)[C@@H](NC(=O)OC)C(C)C)[nH]2)ccc1-c1ccc(-c2cnc([C@@H]3CCCN3C(=O)[C@@H](NC(=O)OC)C(C)C)[nH]2)cc1` [Example 342]: the EC50 was 0.001 to 0.999 nM in test [1] (genotype 1a replicon); 0.01 nM in test [2]; 0.001 to 0.999 nM in test [3]; 0.001 to 0.99 nM in test [4] (setting [6]); 0.001 to 0.99 nM in test [5].
